Where two headings read alike, the source gives them in different places.
Legend:
lymphocytes = settings: for inhibition of phospholipid methylation below basal: haloperidol 1 μM with dopamine/GTP; for stimulation of phospholipid methylation: dopamine (10 μM) and GTP (1 μM)
Excerpt: In an early hypothesis (“the transmethylation hypothesis”), a defect resulting in the formation of hallucinogens was proposed. […] To determine whether D4 receptor-dependent phospholipid methylation was altered in individuals with schizophrenia, males ages 27-70 with well documented schizophrenia by DSM-IV criteria, were studied and compared with normal controls.
To determine whether D4 receptor-dependent phospholipid methylation was altered in schizophrenia, the labelling of phospholipids by [^3H]-methyl-methionine in lymphocytes obtained from people with schizophrenia (as defined by DSM IV diagnostic criteria Diagnostic and Statistical Manual of Mental Disorders (4th Edition), American Psychiatric Association, Washington, D.C., […], pp. 759-764) under medical treatment) was measured as compared to lymphocytes from healthy controls. Lymphocytes were isolated as previously described (De La Rosa et al., J. Biol. Chem. 267:10699, 1992) and aliquots of 4×10^6 cells were resuspended in Hank's balanced salt solution containing 8 μCi/ml [^3H-methyl]methionine for 60 min. […] Incorporation of [^3H-methyl] label into phospholipids was determined as described in Example I.

D4 receptor = molecular target: T1, D4 receptor (Homo sapiens, UniProt P21917); test: [14C] formate-labelled phospholipid methylation in CHO/D4 cells; format: cell-based; settings: absence of agonist
T1 construct: expressed in transfected cells; host or cells: CHO cells
T1 sequence (P21917 1-419): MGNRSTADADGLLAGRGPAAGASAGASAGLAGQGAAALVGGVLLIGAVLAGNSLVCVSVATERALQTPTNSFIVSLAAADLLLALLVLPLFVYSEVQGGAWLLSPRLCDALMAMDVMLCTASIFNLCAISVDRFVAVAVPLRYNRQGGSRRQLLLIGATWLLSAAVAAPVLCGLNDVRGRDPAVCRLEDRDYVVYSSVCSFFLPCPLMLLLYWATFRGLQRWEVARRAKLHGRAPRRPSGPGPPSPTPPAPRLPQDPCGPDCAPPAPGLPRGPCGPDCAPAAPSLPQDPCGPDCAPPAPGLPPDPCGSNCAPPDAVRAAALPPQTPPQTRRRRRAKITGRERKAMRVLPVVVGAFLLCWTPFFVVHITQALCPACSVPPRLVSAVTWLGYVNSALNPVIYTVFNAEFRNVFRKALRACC
Protocol: CHO cells transfected with the D4 receptor gene were fed with minimum essential medium (alpha modifications, with or without nucleosides) (pH 7.2) containing 2 mM L-glutamine, W/G418 antibiotic (400 mg/L), donor horse serum (2.5%), fetal bovine serum (2.5%), penicillin/streptomycin/fungizone (1%), CuSO4 (10^−6M). Cells (200,000 cells/well) were plated in 6-well- plates and placed in 5% CO2 incubator at 37° C.
Two-day-old confluent, cultured D4-transfected CHO cells were used for assay. The pH of Hank's balanced buffer (HBSS) was adjusted to pH 7.4 using sodium bicarbonate buffer. [^14C]-formic acid (1 μCi/ml) and pharmacological agents were added to HBSS. Feeding medium was removed from the well and then 600 μl of the HBSS solution with the radiolabelled formic acid (warmed to 37° C.) was added to each well of 6-well-plates. Plates were incubated at 37° C. for 30 minutes in the culture incubator. The reaction was stopped by washing once with ice-cold PBS (pH 7.4) and, after aspirating off the HBSS, 500 μl of 10% trichloroacetic acid (TCA) was added. Cells were harvested by scraping with a cell scraper and transferred into a plastic microcentrifuge tube. […] CPM values were normalized to the protein content of each sample and expressed as the mean +/− S.E.M. for the group. Differences between groups were analyzed by a t-test with p<0.05 as the criterion for significance.

dopamine D4 receptors = molecular target: T2, dopamine D4 receptors (Homo sapiens, UniProt P21917); settings: Schlacter et al., Soc. Neurosci. Abstr. 1995; read-out: reported KD; cited from earlier work
T2 sequence (P21917 1-419): T1 sequence (P21917 1-419)

SK-N-MC cells = SK-N-MC cells grown in the presence of nucleosides
[1] = lymphocytes of schizophrenia patients

O=C(CCCN1CCC(O)(c2ccc(Cl)cc2)CC1)c1ccc(F)cc1 [haloperidol]
effect on methyl incorporation into phospholipids, FIG. 4B (lymphocytes; both control and schizophrenia lymphocytes, dopamine 10 μM and GTP 1 mM, with or without haloperidol 1 μM): significant decrease
inhibition of phospholipid methylation below basal (lymphocytes; lymphocytes of normal controls): 25%
inhibition of phospholipid methylation below basal (lymphocytes; [1]): 39%

CC(C)Oc1cccnc1N(C)C1CCN(Cc2ccccc2)CC1 [U-101,958]
effect on [14C] formate-labelled phospholipid methylation, FIG. 3b (D4 receptor; CHO/D4 cells grown in nucleoside-free medium): dose-dependent inhibition
IC50 (D4 receptor; CHO/D4 cells, read-out: IC50 of inhibition of phospholipid methylation): 0.2 nM
Kd (dopamine D4 receptors): 1 nM

NCCc1ccc(O)c(O)c1 [dopamine]
effect on [14C] formate-labelled phospholipid methylation, FIG. 3c (SK-N-MC cells): dose-dependent dopamine stimulation
stimulation of phospholipid methylation (lymphocytes; lymphocytes of normal controls): 30%
stimulation of phospholipid methylation (lymphocytes; [1]): 165%

— patent US6773892B1, “Methods of identifying and determining the effectiveness of therapeutic processes or agents for the treatment of schizophrenia and related disorders” (Northeastern University, priority 1997, dated 2004)
